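Each compound was tested at five concentrations against cells in 96-well plates for 48 hours. Abbreviation: GI50, concentration required for 50% inhibition of growth.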 Calls of active or inactive are those of the source. No stated cut-off is given here; in the data, active = GI50 up to about 1.1 µM and inactive = higher.
Tests used:
Experiment in all cases: NCI tumour cell line growth inhibition, 48 h
MDA-MB-231 = test system: MDA-MB-231
HT-29 = test system: HT-29
TK-10 = test system: TK-10
SF-268 = test system: SF-268
PC-3 = test system: PC-3
RPMI-8226 = test system: RPMI-8226
MCF7 = test system: MCF7
NCI/ADR-RES = test system: NCI/ADR-RES
DU-145 = test system: DU-145
OVCAR-3 = test system: OVCAR-3
K562 = test system: K562
HOP-62 = test system: HOP-62
MDA-N = test system: MDA-N
OVCAR-8 = test system: OVCAR-8
RXF 393 = test system: RXF 393
SF-295 = test system: SF-295
Hs-578T = test system: Hs-578T
CAKI-1 = test system: CAKI-1
COLO 205 = test system: COLO 205
HCC 2998 = test system: HCC 2998

Measured: GI50

Cc1ncc([N+](=O)[O-])n1CCN(C)C(=O)CCCn1ccnc1[N+](=O)[O-]
inactive: MDA-MB-231 > 100 µM | HT-29 > 100 µM | TK-10 > 100 µM | SF-268 > 100 µM | PC-3 > 100 µM | RPMI-8226 > 100 µM | MCF7 > 100 µM | NCI/ADR-RES > 100 µM | DU-145 > 100 µM | OVCAR-3 > 100 µM | K562 > 100 µM | HOP-62 > 100 µM | MDA-N > 100 µM | OVCAR-8 > 100 µM | RXF 393 > 100 µM | SF-295 > 100 µM | Hs-578T > 100 µM | CAKI-1 > 100 µM | COLO 205 > 100 µM

CCOC(=O)c1[nH]cc(C)c1-c1ccc2c(-c3ccccc3)nc3ccccc3n12
inactive: MDA-MB-231 3.13 µM | HT-29 2.54 µM | TK-10 3.21 µM | SF-268 3.94 µM | HCC 2998 2.26 µM | PC-3 3.01 µM | MCF7 2.1 µM | NCI/ADR-RES 2.51 µM | DU-145 3.8 µM | OVCAR-3 4.13 µM | K562 3.34 µM | HOP-62 5.42 µM | MDA-N 2.66 µM | OVCAR-8 4.25 µM | RXF 393 2.03 µM | SF-295 3.52 µM | Hs-578T 2 µM | CAKI-1 5.89 µM | COLO 205 2.86 µM

CCOC(=O)CCC(NC(=O)c1ccc(Nc2cnc3cc(C(F)(F)F)ccc3n2)cc1)C(=O)OCC (stereo not given)
inactive: MDA-MB-231 > 100 µM | HT-29 > 100 µM | TK-10 > 87.9 µM | SF-268 14.1 µM | HCC 2998 > 30.6 µM | RPMI-8226 > 100 µM | MCF7 > 31.6 µM | NCI/ADR-RES > 100 µM | DU-145 > 100 µM | OVCAR-3 > 100 µM | K562 93.1 µM | HOP-62 11 µM | MDA-N > 100 µM | OVCAR-8 27.2 µM | RXF 393 3.55 µM | SF-295 12.8 µM | Hs-578T 6.21 µM | CAKI-1 24.7 µM | COLO 205 80.4 µM

C/C(=N\NC(=O)/C(C#N)=C\c1ccc(N(CCC#N)CCC#N)cc1)c1ccccc1
inactive: MDA-MB-231 > 10 µM | HT-29 > 10 µM | TK-10 > 10 µM | SF-268 > 10 µM | HCC 2998 > 10 µM | PC-3 > 10 µM | RPMI-8226 > 10 µM | MCF7 > 10 µM | NCI/ADR-RES > 10 µM | DU-145 > 10 µM | HOP-62 > 10 µM | MDA-N > 10 µM | OVCAR-8 > 10 µM | RXF 393 > 10 µM | SF-295 > 10 µM | Hs-578T > 10 µM | CAKI-1 > 10 µM | COLO 205 > 10 µM

CCCOC(=O)c1cc(C(=CCC[C@H]2CC[C@@]3(C)[C@@H](CC[C@@H]4[C@@H]3CC[C@]3(C)[C@@H](C(C)CCCC(C)C)CC[C@@H]43)C2)c2cc(Cl)c(O)c(C(=O)OCCC)c2)cc(Cl)c1O (stereo not given in full)
inactive: MDA-MB-231 > 50 µM | HT-29 > 50 µM | SF-268 > 50 µM | HCC 2998 > 50 µM | PC-3 > 50 µM | RPMI-8226 > 50 µM | NCI/ADR-RES > 50 µM | DU-145 > 50 µM | OVCAR-3 > 50 µM | K562 > 5 µM | HOP-62 > 50 µM | MDA-N > 50 µM | OVCAR-8 > 50 µM | Hs-578T > 50 µM | CAKI-1 > 50 µM | COLO 205 > 50 µM

O=[N+]([O-])/C=C/c1cc(Cl)c(/C=C/[N+](=O)[O-])cc1Cl
inactive: MDA-MB-231 1.86 µM | HT-29 2.5 µM | TK-10 2.12 µM | SF-268 2.66 µM | HCC 2998 1.53 µM | PC-3 2.55 µM | RPMI-8226 1.25 µM | MCF7 2.89 µM | NCI/ADR-RES 2.79 µM | DU-145 2.51 µM | OVCAR-3 1.97 µM | HOP-62 3.77 µM | MDA-N 2.27 µM | OVCAR-8 1.61 µM | RXF 393 1.46 µM | SF-295 4.68 µM | Hs-578T 2.91 µM | CAKI-1 1.89 µM | COLO 205 1.95 µM

CO/C(=N\N=C\c1ccc(OC)c(OC)c1)c1ccncc1
inactive: MDA-MB-231 > 10 µM | TK-10 > 10 µM | SF-268 > 10 µM | HCC 2998 > 10 µM | RPMI-8226 > 10 µM | MCF7 > 10 µM | NCI/ADR-RES > 10 µM | DU-145 > 10 µM | K562 > 10 µM | HOP-62 > 10 µM | MDA-N > 10 µM | OVCAR-8 > 10 µM | Hs-578T > 10 µM | CAKI-1 > 10 µM | COLO 205 > 10 µM

CCN(CC)CC1CCCCN1CC(=O)N1c2ccc(Br)cc2C(=O)Nc2cccnc21 (stereo not given)
inactive: MDA-MB-231 > 100 µM | HT-29 > 100 µM | TK-10 > 100 µM | SF-268 > 100 µM | HCC 2998 > 100 µM | PC-3 > 100 µM | RPMI-8226 > 100 µM | MCF7 > 100 µM | DU-145 > 100 µM | OVCAR-3 > 100 µM | K562 > 100 µM | HOP-62 > 100 µM | MDA-N > 100 µM | OVCAR-8 > 100 µM | RXF 393 > 100 µM | SF-295 > 100 µM | Hs-578T > 100 µM | CAKI-1 > 100 µM | COLO 205 > 100 µM

CC(=O)N1c2ccccc2Sc2cc(C(O)(C(F)(F)F)C(F)(F)F)ccc21
inactive: MDA-MB-231 > 10 µM | HT-29 > 10 µM | TK-10 > 10 µM | SF-268 > 10 µM | HCC 2998 > 10 µM | PC-3 > 10 µM | MCF7 > 10 µM | NCI/ADR-RES > 10 µM | DU-145 > 10 µM | OVCAR-3 > 10 µM | K562 > 10 µM | HOP-62 > 10 µM | MDA-N > 10 µM | OVCAR-8 > 10 µM | RXF 393 > 10 µM | SF-295 > 10 µM | Hs-578T > 10 µM | CAKI-1 > 10 µM | COLO 205 > 10 µM

NCCOc1ccccn1
inactive: MDA-MB-231 > 100 µM | HT-29 > 100 µM | TK-10 > 100 µM | SF-268 > 100 µM | PC-3 > 100 µM | RPMI-8226 > 100 µM | MCF7 > 100 µM | NCI/ADR-RES > 100 µM | DU-145 > 100 µM | OVCAR-3 > 100 µM | K562 > 100 µM | HOP-62 > 100 µM | MDA-N > 100 µM | OVCAR-8 > 100 µM | RXF 393 > 100 µM | SF-295 > 100 µM | Hs-578T > 100 µM | CAKI-1 > 100 µM | COLO 205 > 100 µM

O=S(=O)(O)c1ccc(/N=N/c2ccc3c(S(=O)(=O)O)cccc3c2O)c2ccccc12
inactive: MDA-MB-231 > 100 µM | HT-29 > 100 µM | TK-10 > 100 µM | SF-268 > 100 µM | PC-3 > 100 µM | RPMI-8226 > 100 µM | MCF7 > 100 µM | NCI/ADR-RES > 100 µM | DU-145 > 100 µM | OVCAR-3 > 100 µM | HOP-62 > 100 µM | MDA-N > 100 µM | OVCAR-8 > 100 µM | RXF 393 > 100 µM | SF-295 > 100 µM | Hs-578T > 100 µM | CAKI-1 > 100 µM | COLO 205 > 100 µM

c1ccc2c(c1)SC1=C(SC(=C3SC4=C(S3)Sc3ccccc3S4)S1)S2
inactive: MDA-MB-231 > 100 µM | HT-29 > 100 µM | TK-10 > 100 µM | SF-268 > 100 µM | HCC 2998 > 100 µM | PC-3 > 100 µM | RPMI-8226 > 100 µM | MCF7 > 100 µM | NCI/ADR-RES > 100 µM | DU-145 > 100 µM | OVCAR-3 > 100 µM | HOP-62 36.9 µM | MDA-N > 100 µM | OVCAR-8 > 100 µM | SF-295 > 100 µM | Hs-578T 23.3 µM | CAKI-1 > 100 µM | COLO 205 > 100 µM

Cc1ccc(C2SCC(=O)N2c2ccc(-c3ccc(-n4c(-c5ccccc5)nc5ccccc5c4=O)cc3)cc2)cc1 (stereo not given)
inactive: MDA-MB-231 92.9 µM | HT-29 38.9 µM | TK-10 > 100 µM | SF-268 33.8 µM | HCC 2998 > 100 µM | PC-3 42.4 µM | RPMI-8226 > 100 µM | MCF7 > 100 µM | NCI/ADR-RES 91.4 µM | DU-145 > 100 µM | OVCAR-3 > 100 µM | K562 64.7 µM | HOP-62 > 100 µM | MDA-N 80 µM | OVCAR-8 > 100 µM | SF-295 > 100 µM | Hs-578T 55.5 µM | CAKI-1 > 100 µM | COLO 205 81.8 µM

COC(=O)NC1(NC(=O)OC)NC(=O)c2ccccc2N1
inactive: MDA-MB-231 > 100 µM | HT-29 > 100 µM | TK-10 96.2 µM | SF-268 > 100 µM | HCC 2998 > 100 µM | PC-3 > 100 µM | MCF7 > 100 µM | NCI/ADR-RES > 100 µM | DU-145 > 100 µM | OVCAR-3 > 100 µM | K562 > 100 µM | HOP-62 > 100 µM | MDA-N 64.1 µM | OVCAR-8 > 100 µM | SF-295 36.5 µM | Hs-578T > 100 µM | CAKI-1 > 100 µM | COLO 205 > 100 µM

Source: ChEMBL document CHEMBL1201862, “PubChem BioAssay data set” (2004)
